Experimental findings from patent publication US20240316051A1, “A PHARMACEUTICAL COMBINATION AND USE THEREOF” (Ascentage Pharma (Suzhou) Co., Ltd., priority 2021, published 2024) are described below.

pIC50: −log10 of the molar value.

T1 sequence (O75530 whole entry): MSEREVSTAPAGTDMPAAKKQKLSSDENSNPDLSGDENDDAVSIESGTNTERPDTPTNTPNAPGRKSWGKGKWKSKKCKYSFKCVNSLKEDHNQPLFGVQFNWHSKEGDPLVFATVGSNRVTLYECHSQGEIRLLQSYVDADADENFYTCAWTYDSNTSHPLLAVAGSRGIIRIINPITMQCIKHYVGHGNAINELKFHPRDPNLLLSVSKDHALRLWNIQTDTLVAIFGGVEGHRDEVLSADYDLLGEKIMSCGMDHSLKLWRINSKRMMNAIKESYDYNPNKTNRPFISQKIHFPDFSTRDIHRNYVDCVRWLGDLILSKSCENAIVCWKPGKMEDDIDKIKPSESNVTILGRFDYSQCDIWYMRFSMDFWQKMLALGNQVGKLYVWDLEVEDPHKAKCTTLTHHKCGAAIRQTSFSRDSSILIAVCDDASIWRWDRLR

The first assay addresses T1, EED (1-441)-His protein (Homo sapiens, UniProt O75530).
T1 construct: 20 nM EED (1-441)-His protein
The assay can be described thus: EED-H3K27Me3 peptide competition binding assay by AlphaScreen. To be noted: IC50 class, Table 4B, read-out: Alpha screen. Summed up:
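EED(1-441)-His was preincubated 15 min with compound, then biotin-H3K27Me3(19-33) peptide added for 30 min; both were added as 20 nM solutions in 25 mM HEPES pH 8, 0.02% Tween-20, 0.5% BSA. Ni-chelate acceptor and streptavidin donor beads (10 μg/ml each final) were added for 1 h in the dark at RT. Signal read at 615 nm (680 nm excitation), normalised to controls and fitted to dose-response for IC50.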
Background: In Alpha technology, singlet oxygen from a donor bead excites a nearby acceptor bead.
Turning to `Cc1ccc2c(n1)CCNC(=O)c1ncn3c(NCc4c(F)ccc5c4CCO5)ncc-2c13` [E 29, 13-(((5-fluoro-2,3-dihydrobenzofuran-4-yl)methyl)amino)-8-methyl-5,6-dihydro-2,4,7,12,13a-pentaazabenzo[4,5]cyclonona[1,2,3-cd]inden-3(4H)-one], the pIC50 is 7.00 to 8.00.

As for `O=C1c2ncn3c(NCc4c(F)ccc5c4CCO5)ncc(c23)-c2ccc(C3CC3)nc2CN1CC(F)(F)F` [E 14, 7-cyclopropyl-12-(((5-fluoro-2,3-dihydrobenzo-furan-4-yl)methyl)amino)-4-(2,2,2-trifluoroethyl)-4,5-dihydro-3H-2,4,6,11,12a-pentaazabenzo[4,5] cycloocta[1,2,3-cd]inden-3-one], the pIC50 was greater than 8.00.

In the case of `CCc1cnc2n1Cc1nc(C)ccc1-c1cnc(NCc3c(F)ccc4c3CCO4)n3cnc-2c13` [E 38, 5-ethyl-N-((5-fluoro-2,3-dihydrobenzofuran-4-yl)methyl)-8-methyl-6H-2,3,5a,7,12,13a-hexaazabenzo [4,5]cyclopenta[7,8]cycloocta[1,2,3-cd]inden-1 3-amine], the pIC50 was 7.00 to 8.00.

Consider `O=C1c2ncn3c(NCc4c(F)ccc5c4CCO5)ncc(c23)-c2cnc(C(F)(F)F)cc2CN1C1CCC1` [E 5, 4-cyclobutyl-12-(((5-fluoro-2,3-dihydrobenzofuran-4-yl)methyl)amino)-7-(trifluoromethyl)-4,5-dihydro-3H-2,4,8,11,12a-pentaazabenzo[4,5] cycloocta[1,2,3-cd]inden-3-one], for which the pIC50 is greater than 8.00.

As to `CC(C)c1ccc2c(n1)CN(CC(F)(F)F)C(=O)c1ncn3c(NCc4c(F)ccc5c4CCO5)ncc-2c13` [E 15, 12-(((5-fluoro-2,3-dihydrobenzofuran-4-yl)methyl)amino)-7-isopropyl-4-(2,2,2-trifluoroethyl)-4,5-dihydro-3H-2,4,6,11,12a-pentaazabenzo[4,5] cycloocta[1,2,3-cd]inden-3-one], the pIC50 is greater than 8.00.

Take `O=C1c2ncn3c(NCc4c(F)ccc5c4CCO5)ncc(c23)-c2ccc(C3CCC3)nc2CN1CC(F)(F)F` [E 52, 7-cyclobutyl-12-(((5-fluoro-2,3-dihydrobenzofuran-4-yl)methyl)amino)-4-(2,2,2-trifluoroethyl)-4,5-dihydro-3H-2,4,6,11,12a-pentaazabenzo[4,5] cycloocta[1,2,3-cd]inden-3-one]: the pIC50 was greater than 8.00.

For the compound `Fc1ccc2c(c1CNc1ncc3c4c(ncn14)-c1nccn1Cc1nc(C(F)(F)F)ccc1-3)CCO2` [E 32, N-((5-fluoro-2,3-dihydrobenzofuran-4-yl)methyl)-8-(trifluoromethyl)-6H-2,3,5a,7,12,13a-hexaaza-benzo[4,5]cyclopenta[7,8]cycloocta[1,2,3-cd]inden-13-amine], the pIC50 was 7.00 to 8.00.

As for `O=C1c2ncn3c(NCc4c(F)ccc5c4CCO5)ncc(c23)-c2ccc(C(F)(F)F)nc2CN1CC(F)F` [E 8, 4-(2,2-difluoroethyl)-12-(((5-fluoro-2,3-dihydro-benzofuran-4-yl)methyl)amino)-7-(trifluoromethyl)-4,5-dihydro-3H-2,4,6, 11,12a-pentaazabenzo[4,5] cycloocta[1,2,3-cd]inden-3-one], the pIC50 is greater than 8.00.

On to `CC(C)(C)c1cc2c(cn1)-c1cnc(NCc3c(F)ccc4c3CCO4)n3cnc(c13)C(=O)N(CC(F)(F)F)C2` [E 46, 7-(tert-butyl)-12-(((5-fluoro-2,3-dihydrobenzofuran-4-yl)methyl)amino)-4-(2,2,2-trifluoroethyl)-4,5-dihydro-3H-2,4,8,11,12a-pentaazabenzo[4,5]cyclo octa[1,2,3-cd]inden-3-one], for which the pIC50 is greater than 8.00.

As for `CC(C)N1CCc2cc(C(F)(F)F)ncc2-c2cnc(NCc3c(F)ccc4c3CCO4)n3cnc(c23)C1=O` [E 31, 13-(((5-fluoro-2,3-dihydrobenzofuran-4-yl)methyl)amino)-4-isopropyl-8-(trifluoromethyl)-5,6-dihydro-2,4,9,12,13a-pentaazabenzo[4,5]cyclonona[1,2,3-cd]inden-3(4H)-one], the pIC50 was 7.00 to 8.00.

Staying with this assay, now noted: Table 4A, read-out: Alpha screen.
As for `O=C1c2ncn3c(NCc4c(F)ccc5c4CCO5)ncc(c23)-c2cnc(C(F)(F)F)cc2CN1C1CC(F)(F)C1` [Compound 85, 4-(3,3-difluorocyclobutyl)-12-(((5-fluoro-2,3-dihydrobenzofuran-4-yl)methyl)amino)-7-(trifluoro-methyl)-4,5-dihydro-3H-2,4,8,11,12a-pentaazabenzo [4,5]cycloocta[1,2,3-cd]inden-3-one], the pIC50 was 8.01.

`O=C1OCc2ncc(C(F)(F)F)cc2-c2cnc(NCc3c(F)ccc4c3CCO4)n3cnc1c23` [Compound 30, 12-(((5-fluoro-2,3-dihydrobenzofuran-4-yl)methyl)amino)-8-(trifluoromethyl)-3H,5H-4-oxa-2,6,11, 12a-tetraazabenzo[4,5]cycloocta[1,2,3-cd]inden-3-one]: the pIC50 was 8.69.

On to `O=C1NCc2cc(F)ccc2-c2cnc(NCc3c(F)ccc4c3CCO4)n3cnc1c23` [Compound 17, 7-fluoro-12-(((5-fluoro-2,3-dihydrobenzofuran-4-yl)methyl)amino)-4,5-dihydro-3H-2,4,11,12a-tetra azabenzo[4,5]cycloocta[1,2,3-cd]inden-3-one], for which the pIC50 is 9.18.

Regarding `CN1CCC(CN2Cc3nc(C(F)(F)F)ccc3-c3cnc(NCc4c(F)ccc5c4CCO5)n4cnc(c34)C2=O)CC1` [Compound 42, 12-(((5-fluoro-2,3-dihydrobenzofuran-4-yl)methyl)amino)-4-((1-methylpiperidin-4-yl)methyl)-7-(trifluoromethyl)-4,5-dihydro-3H-2,4,6,11,12a-pentaazabenzo[4,5]cycloocta[1,2,3-cd]inden-3-one], the pIC50 was 9.08.

As for `O=C1c2ncn3c(NCc4c(F)ccc5c4CCO5)ncc(c23)-c2cnc(C(F)(F)F)cc2CN1C1CC1` [Compound 36, 4-cyclopropyl-12-(((5-fluoro-2,3-dihydrobenzofuran-4-yl)methyl)amino)-7-(trifluoromethyl)-4,5-dihydro-3H-2,4,8,11,12a-pentaazabenzo[4,5]cycloocta[1,2,3-cd]inden-3-one], the pIC50 was 8.84.

For `O=S1(=O)CCc2cc(F)ccc2-c2cnc(NCc3c(F)ccc4c3CCO4)n3cnc1c23` [Compound 96, 7-fluoro-12-(((5-fluoro-2,3-dihydrobenzofuran-4-yl)methyl)amino)-4,5-dihydro-3-thia-2,11,12a-triazabenzo[4,5]cycloocta[1,2,3-cd]indene 3,3-dioxide], the pIC50 is 7.66.

As for `CC(F)(F)CN1Cc2nc(C(F)(F)F)ccc2-c2cnc(NCc3c(F)ccc4c3CCO4)n3cnc(c23)C1=O` [Compound 77, 4-(2,2-difluoropropyl)-12-(((5-fluoro-2,3-dihydrobenzofuran-4-yl)methyl)amino)-7-(trifluoromethyl)-4,5-dihydro-3H-2,4,6,11,12a-pentaazabenzo[4,5] cycloocta[1,2,3-cd]inden-3-one], the pIC50 is 8.72.

Consider `O=C1c2ncn3c(NCc4c(F)ccc5c4CCO5)ncc(c23)-c2ccc(C(F)(F)F)cc2CN1CC(F)(F)F` [Compound 83, 12-(((5-fluoro-2,3-dihydrobenzofuran-4-yl)methyl)amino)-4-(2,2,2-trifluoroethyl)-7-(trifluoromethyl)-4,5-dihydro-3H-2,4,11,12a-tetraazabenzo[4,5] cycloocta[1,2,3-cd]inden-3-one], for which the pIC50 was 8.00.

In the case of `O=C1NCc2ccc(F)cc2-c2cnc(NCc3c(F)ccc4c3CCO4)n3cnc1c23` [Compound 23, 8-fluoro-12-(((5-fluoro-2,3-dihydrobenzofuran-4-yl)methyl)amino)-4,5-dihydro-3H-2,4,11,12a-tetra azabenzo[4,5]cycloocta[1,2,3-cd]inden-3-one], the pIC50 was 8.93.

As to `O=C1NCc2ccc(C(F)(F)F)cc2-c2cnc(NCc3c(F)ccc4c3CCO4)n3cnc1c23` [Compound 26, 12-(((5-fluoro-2,3-dihydrobenzofuran-4-yl)methyl)amino)-8-(trifluoromethyl)-4,5-dihydro-3H-2,4,11, 12a-tetraazabenzo[4,5]cycloocta[1,2,3-cd]inden-3-one], the pIC50 was 8.01.

With `Cc1cccc(F)c1CNc1ncc2c3c(ncn13)COCc1ncccc1-2` [Compound 1, N-(2-fluoro-6-methylbenzyl)-3H,5H-4-oxa-2,6,11, 12a-tetraazabenzo[4,5]cycloocta[1,2,3-cd]inden-1 2-amine], the pIC50 was less than 8.00.

In the case of `O=C1c2ncn3c(NCc4c(F)ccc5c4CCO5)ncc(c23)-c2ccc(C(F)(F)F)nc2CN1C1CCOCC1` [Compound 51, 12-(((5-fluoro-2,3-dihydrobenzofuran-4-yl)methyl)amino)-4-(tetrahydro-2H-pyran-4-yl)-7-(trifluoromethyl)-4,5-dihydro-3H-2,4,6,11, 12a-pentaazabenzo [4,5]cycloocta[1,2,3-cd]inden-3-one], the pIC50 was 9.15.

With `O=C1OCc2c(F)cccc2-c2cnc(NCc3c(F)ccc4c3CCO4)n3cnc1c23` [Compound 11, 6-fluoro-12-(((5-fluoro-2,3-dihydrobenzofuran-4-yl)methyl)amino)-3H,5H-4-oxa-2,11,12a-triazabenzo [4,5]cycloocta[1,2,3-cd]inden-3-one], the pIC50 was 9.12.

For `O=C1c2ncn3c(NCc4c(F)ccc5c4CCO5)ncc(c23)-c2ccc(C(F)(F)F)nc2CN1CC1(O)CC1` [Compound 44, 12-(((5-fluoro-2,3-dihydrobenzofuran-4-yl)methyl)amino)-4-((1-hydroxycyclopropyl)methyl)-7-(trifluoromethyl)-4,5-dihydro-3H-2,4,6,11,12a-pentaazabenzo[4,5]cycloocta[1,2,3-cd]inden-3-one], the pIC50 is 8.87.
